The source of these data is ChEMBL document CHEMBL1150041, “Arylpiperazide derivatives of phenylpiperazines as a new class of potent and selective 5-HT1B receptor antagonists” (Bioorg Med Chem Lett, 1997).

Each structure is given as a SMILES string.

The target of assay [1] is T1, 5-hydroxytryptamine receptor 1A (Homo sapiens, UniProt P08908).
T1 sequence (P08908 whole entry): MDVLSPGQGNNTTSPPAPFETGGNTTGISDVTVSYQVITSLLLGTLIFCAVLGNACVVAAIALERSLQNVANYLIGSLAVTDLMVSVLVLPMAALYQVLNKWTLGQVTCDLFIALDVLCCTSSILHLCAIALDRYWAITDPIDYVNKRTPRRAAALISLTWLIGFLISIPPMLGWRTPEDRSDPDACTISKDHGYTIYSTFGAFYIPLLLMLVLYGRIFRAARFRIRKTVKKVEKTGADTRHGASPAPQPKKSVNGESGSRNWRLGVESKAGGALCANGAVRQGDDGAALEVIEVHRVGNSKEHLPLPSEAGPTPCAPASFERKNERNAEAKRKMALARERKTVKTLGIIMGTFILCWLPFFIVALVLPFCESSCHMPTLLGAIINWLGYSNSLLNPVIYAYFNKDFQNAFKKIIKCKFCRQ
In words: Affinity for 5-hydroxytryptamine 1A receptor subtype.

For assay [2], the target named is T2, 5-hydroxytryptamine receptor 1B (Homo sapiens, UniProt P28222). In words: Affinity for 5-hydroxytryptamine 1B receptor subtype.
Assay [3] deals with 5-hydroxytryptamine receptor 1D (Homo sapiens, UniProt P28221). In words: Affinity for 5-hydroxytryptamine 1D receptor subtype.
Assay [4] has as its target T2, 5-hydroxytryptamine receptor 1B. In words: The compound was evaluated for intrinsic activity against human cloned 5-hydroxytryptamine 1B receptor; Slient antagonist. The format is functional. To be noted: filed as antagonist.
For assay [5] the target is unchanged. Description: The compound was evaluated for intrinsic activity against human cloned 5-hydroxytryptamine 1B receptor; silent antagonist. Type of assay: functional.
Assay [6] shares this target. Description: The compound was evaluated for intrinsic activity against human cloned 5-hydroxytryptamine 1B receptor.
Assay [7] has the same target. Description: The compound was evaluated for antagonist potency at human cloned 5-hydroxytryptamine 1B receptor.

T2 sequence (P28222 whole entry): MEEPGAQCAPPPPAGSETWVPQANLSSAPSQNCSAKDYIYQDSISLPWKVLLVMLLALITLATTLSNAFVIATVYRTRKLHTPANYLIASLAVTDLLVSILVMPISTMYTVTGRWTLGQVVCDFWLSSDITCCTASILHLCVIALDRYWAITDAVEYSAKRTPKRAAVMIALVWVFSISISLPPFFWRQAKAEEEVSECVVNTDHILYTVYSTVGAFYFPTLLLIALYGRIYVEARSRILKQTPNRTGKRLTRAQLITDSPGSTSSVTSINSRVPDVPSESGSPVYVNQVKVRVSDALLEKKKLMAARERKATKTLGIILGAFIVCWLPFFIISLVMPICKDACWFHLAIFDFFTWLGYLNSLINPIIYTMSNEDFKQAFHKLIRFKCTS
Sequence of 5-hydroxytryptamine receptor 1D (P28221 whole entry): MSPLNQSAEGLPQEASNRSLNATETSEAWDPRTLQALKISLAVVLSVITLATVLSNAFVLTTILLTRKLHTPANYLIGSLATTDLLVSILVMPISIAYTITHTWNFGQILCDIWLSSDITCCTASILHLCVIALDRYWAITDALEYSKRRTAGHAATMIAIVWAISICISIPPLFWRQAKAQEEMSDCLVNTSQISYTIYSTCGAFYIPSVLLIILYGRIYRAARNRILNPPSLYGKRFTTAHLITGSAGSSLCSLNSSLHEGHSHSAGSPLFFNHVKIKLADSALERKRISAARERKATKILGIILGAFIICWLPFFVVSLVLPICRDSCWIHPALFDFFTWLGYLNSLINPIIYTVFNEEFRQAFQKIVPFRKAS

The Ki is the dissociation constant of the complex between target and ligand, obtained from inhibition or displacement. Read a low Ki as tighter binding. As to `Cc1ccccc1N1CCN(C(=O)Oc2ccc(Cl)c(N3CCN(C)CC3)c2)CC1`, the Ki is over 1000 nM in assay [1], 150 nM in assay [2] and 3.6 nM in assay [3]. Moreover, the Intrinsic activity result in assay [4] was “Antagonist”.
On to `Cc1ccccc1N1CCN(C(=O)COc2ccc(Cl)c(N3CCN(C)CC3)c2)CC1`, for which the Ki was over 1000 nM in assay [1], 11 nM in assay [2] and 240 nM in assay [3]. This molecule also registered a Kb in assay [5] of 38 nM.
Turning to `COc1ccc(NCC(=O)N2CCN(c3ccccc3C)CC2)cc1N1CCN(C)CC1`, the Ki was 40 nM in assay [2] and 420 nM in assay [3]. In assay [5], this molecule had a Kb of 195 nM.
In assay [1], `Cc1nc(-c2ccc(-c3ccc(C(=O)N4CCc5cc6c(cc54)C4(CCN(C)CC4)CO6)cc3)c(C)c2)no1` [SB-224289] had an inhibition constant Ki of over 1000 nM.
On to `COc1ccc(N2CCN(C(=O)Nc3ccc(OC)c(N4CCN(C)CC4)c3)CC2)cc1`, for which the Kb in assay [6] was 12 nM.
As to `COc1cccc(N2CCN(C(=O)Nc3ccc(OC)c(N4CCN(C)CC4)c3)CC2)c1`, the values for the Ki in assay [1], in assay [2] and in assay [3] were 79 nM, 8 nM and 70 nM, respectively.
Turning to `COc1ccc(NC(=O)N2CCN(c3ccccc3C)CC2)cc1N1CCN(C)CC1`, the Ki in assay [1] worked out at 390 nM. In assay [5], the Kb turned out to be 12 nM.
With `COc1ccc(NC(=O)N2CCN(c3cccc4c3CCCC4)CC2)cc1N1CCN(C)CC1`, the Ki in assay [1] came out at 257 nM; in assay [2], 0.5 nM; in assay [3] it was 26 nM. This molecule gave a Kb in assay [6] of 39 nM.
Taken in the same sequence, the figures for `COc1ccc(NC(=O)N2CCN(c3ccccc3)CC2)cc1N1CCN(C)CC1` were 450 nM, 18 nM, 340 nM and 27 nM.
By KB is commonly meant the equilibrium dissociation constant of an antagonist, usually derived from a functional assay. A low value points to higher antagonist affinity. Turning to `COc1ccc(NC(=O)N2CCN(c3c(C)cccc3C)CC2)cc1N1CCN(C)CC1`, the Ki amounted to 393 nM in assay [1], 1.3 nM in assay [2] and 37 nM in assay [3]. The molecule further registered a KB in assay [7] of 10 nM.
Taken in the same sequence, the figures for `COc1ccc(NC(=O)N2CCN(c3ccc(C)cc3C)CC2)cc1N1CCN(C)CC1` were 571 nM, 1.8 nM, 88 nM and 1.9 nM.
Take `COc1ccc(NC(=O)N2CCN(c3ccccc3OC)CC2)cc1N1CCN(C)CC1`: the affinity in assay [3] corresponds to a Ki of 90 nM. In assay [6], the Kb was 16 nM.
Turning to `COc1ccc(NC(=O)c2ccc(-c3ccc(-c4noc(C)n4)cc3C)cc2)cc1N1CCN(C)CC1` [GR-127935], the values for the Ki in assay [1] and in assay [2] were 72 nM and 0.14 nM, respectively.
